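Five concentrations, 48 hours, 96-well plates. Here, GI50 denotes the concentration required for 50% inhibition of growth. TGI denotes the concentration required for complete inhibition of growth.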
Experiments:
Test in all cases: NCI tumour cell line growth inhibition, 48 h
HOP-92 NSCLC = tested on: HOP-92 NSCLC
IGROV1 ovarian = tested on: IGROV1 ovarian
MDA-MB-231 breast = tested on: MDA-MB-231 breast
NCI-H23 lung = tested on: NCI-H23 lung
NCI-H522 lung = tested on: NCI-H522 lung
OVCAR-4 ovarian = tested on: OVCAR-4 ovarian
SF-295 CNS = tested on: SF-295 CNS
SK-MEL-5 melanoma = tested on: SK-MEL-5 melanoma
SK-OV-3 ovarian = tested on: SK-OV-3 ovarian
SR leukemia = tested on: SR leukemia

Row | Compound | GI50 (HOP-92 NSCLC) | TGI (HOP-92 NSCLC) | GI50 (IGROV1 ovarian) | TGI (IGROV1 ovarian) | GI50 (MDA-MB-231 breast) | TGI (MDA-MB-231 breast) | GI50 (NCI-H23 lung) | TGI (NCI-H23 lung) | GI50 (NCI-H522 lung) | TGI (NCI-H522 lung) | GI50 (OVCAR-4 ovarian) | TGI (OVCAR-4 ovarian) | GI50 (SF-295 CNS) | TGI (SF-295 CNS) | GI50 (SK-MEL-5 melanoma) | TGI (SK-MEL-5 melanoma) | GI50 (SK-OV-3 ovarian) | TGI (SK-OV-3 ovarian) | GI50 (SR leukemia) | TGI (SR leukemia)
1 | Cc1cc(S(N)(=O)=O)c(S/C(=N\NS(=O)(=O)c2ccccc2)c2ccc(Cl)c(Cl)c2)cc1Cl | 93.4 µM | > 100 µM | 44 µM | > 100 µM | 28.7 µM | > 100 µM | 20.3 µM | 49.9 µM | 89 µM | > 100 µM | 40.6 µM | > 100 µM | 36.4 µM | > 100 µM | 40.6 µM | > 100 µM | > 100 µM | > 100 µM | 27.9 µM | > 100 µM
2 | CC(=O)c1c(Nc2ccc(F)c(F)c2F)[nH]c2c(F)cc(F)cc2c1=O | 0.116 µM | 0.466 µM | 0.396 µM | > 47.4 µM | 0.285 µM | 1.77 µM | 0.286 µM | 4.41 µM | 0.285 µM | 16.6 µM | 0.32 µM | > 100 µM | 0.308 µM | 1.5 µM | 0.188 µM | 0.431 µM | 0.297 µM | 3.24 µM | 0.45 µM | > 45.9 µM
3 | COc1ccc2c(c1)c(-c1cc(-c3cn(C)c4ccc(OC)cc34)[nH]n1)cn2C | 60.7 µM | > 100 µM | > 100 µM | > 100 µM | > 100 µM | > 100 µM | > 100 µM | > 100 µM | > 100 µM | > 100 µM | > 100 µM | > 100 µM | > 100 µM | > 100 µM | > 100 µM | > 100 µM | > 100 µM | > 100 µM | > 100 µM | > 100 µM
4 | COc1ccc(-c2conc2-c2ccccc2)cc1 | 4.58 µM | > 76.4 µM | 0.498 µM | > 100 µM | 0.615 µM | > 27.5 µM | 0.549 µM | > 100 µM | 0.17 µM | 15.9 µM | 2.35 µM | > 100 µM | 0.317 µM | > 100 µM | 0.441 µM | 4.47 µM | 0.501 µM | > 100 µM | 0.155 µM | > 100 µM
5 | CCOC(=O)C(=Cc1c(-c2ccccc2)[nH]c2ccccc12)C(=O)OCC | 5.47 µM | > 29.8 µM | 5.56 µM | 23.7 µM | 5.71 µM | 34.8 µM | 2.56 µM | 11.7 µM | 3.32 µM | 11.8 µM | 5.49 µM | > 76.5 µM | 7.27 µM | 63.8 µM | 3.81 µM | 14.2 µM | 13.6 µM | 49.2 µM | 2.09 µM | 9.43 µM
6 | Cc1cc2c(-c3nc4ccccn4c3NC34CC5CC(CC(C5)C3)C4)c(O)c(O)cc2c(O)c1-c1c(C)cc2c(-c3nc4ccccn4c3NC34CC5CC(CC(C5)C3)C4)c(O)c(O)cc2c1O | 0.616 µM | 1.88 µM | 0.883 µM | > 25 µM | 0.763 µM | 11.4 µM | 0.137 µM | 3.09 µM | 0.613 µM | 3.54 µM | 0.728 µM | > 25 µM | 0.262 µM | 2.78 µM | 0.564 µM | 1.51 µM | 0.749 µM | 2.3 µM | 0.854 µM | 4.86 µM

From PubChem BioAssay (NCI)
